Substitutions are numbered along the chain they refer to. Like-named read-outs stand apart in the source and are kept apart here. Blank lines part the entries; values can stand above or below the molecule they belong to.
How the values were obtained:
[1] = target: T1, ESR1 wild type receptor (ERα WT) (Homo sapiens, UniProt P03372); test: ERE-luciferase reporter gene assay, wild-type ERα, Caov2 cells; type: cell-based
T1 construct: expressed in transfected cells; host or cells: Caov2 ovarian carcinoma cells; SKBR3 breast adenocarcinoma cells
T1 sequence (P03372 1-595): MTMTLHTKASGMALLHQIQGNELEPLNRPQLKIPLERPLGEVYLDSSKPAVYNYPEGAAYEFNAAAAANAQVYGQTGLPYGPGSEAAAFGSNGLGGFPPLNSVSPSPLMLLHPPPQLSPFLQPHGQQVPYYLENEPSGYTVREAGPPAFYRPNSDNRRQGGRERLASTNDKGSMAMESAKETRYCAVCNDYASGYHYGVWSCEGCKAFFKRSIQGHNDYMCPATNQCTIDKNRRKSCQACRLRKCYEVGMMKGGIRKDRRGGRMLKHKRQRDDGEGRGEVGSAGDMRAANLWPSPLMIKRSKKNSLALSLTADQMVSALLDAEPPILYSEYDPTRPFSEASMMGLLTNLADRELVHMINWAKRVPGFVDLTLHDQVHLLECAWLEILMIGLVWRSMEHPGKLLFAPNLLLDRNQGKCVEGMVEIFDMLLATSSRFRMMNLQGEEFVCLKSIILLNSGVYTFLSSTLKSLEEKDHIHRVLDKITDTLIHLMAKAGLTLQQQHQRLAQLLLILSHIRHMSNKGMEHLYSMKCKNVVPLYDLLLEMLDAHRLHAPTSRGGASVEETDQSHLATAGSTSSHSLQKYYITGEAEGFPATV
Procedure: (§1) ExSite mutagenesis was performed using the corresponding primers as summarized in Table 1 below on a pENTR2B ERα WT construct using Pfu ultra taq polymerase. The primers were PNK phosphorylated. Following PCR amplification, the products were digested with DpnI at 37° C. for 1 hr, followed by overnight ligation at 16° C. Ligated products were transformed into DH5α bacterial cells and grown on kanamycin resistant plates. The pENTR clones were verified by sequencing and then swapped into the pcDNA-DEST vector using the Gateway system (Invitrogen) for expression analysis.
(§2) Caov2 ovarian carcinoma cells were grown in RPMI-1640 media (Gibco) supplemented with 8% Fetal Bovine Serum (FBS), Sodium Pyruvate (NaPyr) and non-essential amino acids (NEAA) and passaged every 2-3 days. SKBR3 breast adenocarcinoma cells were grown in DMEM media (Gibco) supplemented with 8% Fetal Bovine Serum (FBS), Sodium Pyruvate (NaPyr) and non-essential amino acids (NEAA) and passaged every 2-3 days. […]
(§3) Caov2 cells were co-transfected with the 7X-TK-ERE-TATA luciferase reporter gene (Nagel et al., Endocrinology 142(11): 4721-4728 (2001)) and expression constructs for either wild-type or mutant receptors using Fugene transfection reagent (Promega). […] Following 24 hours of treatment, cells were lysed and the luciferase and β-gal assays were performed as described previously (Norris et al., J Biol Chem 270(39): 22777-22782 (1995)) and the plates were read on the Fusion α-FP HT plate reader (PerkinElmer Life Sciences).
(§4) See Jeselsohn et al., Nature Reviews Clinical Oncology 12(10): 573-583 (2015); Jeselsohn et al., Clinical Cancer Research 20(7): 1757-1767 (2014); Robinson et al., Nature Genetics 45(12): 1446-1451(2013); Thomas and Gustafsson, Trends in Endocrinology and Metabolism 26(9): 467-476 (2015); and Toy et al., Nature Genetics 45(12): 1439-1445 (2013). The activity of these mutants was evaluated in a reconstituted estrogen response element (ERE)-luciferase reporter assay in Caov2 ovarian carcinoma cells and SKBR3 breast adenocarcinoma cells. […]

[2] = target: T2, Y537N mutant receptor (ERα LBD mutant) (Homo sapiens, UniProt P03372, Y537N); test: ERE-luciferase reporter gene assay, ERα Y537N, SKBR3 cells; type: cell-based
T2 construct: expressed in transfected cells; host or cells: Caov2 ovarian carcinoma cells; SKBR3 breast adenocarcinoma cells
T2 sequence (P03372 1-595 Y537N): T1 sequence (P03372 1-595) with Y537N
Procedure: as §1, §2, §3, §4

[3] = Reported Cmax in blood at approved doses; type: in vivo
Description: See Maximov et al., Current Clinical Pharmacology 8(2): 135-155 (2013) and McDonnell et al., Journal of Medicinal Chemistry 58(12): 4883-4887 (2015). The transcriptional IC90 values of ER modulators evaluated were compared to the Cmax of these compounds in blood at approved doses. See Highlights of Prescribing Information: Evista, 2007; Highlights of Prescribing Information: Faslodex, 2012; Nolvadex, 2006; and Summary of Product Characteristics: Conbriza 2009.

[4] = target: T3, Y537C mutant receptor (ERα LBD mutant) (Homo sapiens, UniProt P03372, Y537C); test: ERE-luciferase reporter gene assay, ERα Y537C, Caov2 cells; type: cell-based
T3 construct: expressed in transfected cells; host or cells: Caov2 ovarian carcinoma cells; SKBR3 breast adenocarcinoma cells
T3 sequence (P03372 1-595 Y537C): T1 sequence (P03372 1-595) with Y537C
Procedure: as §1, §2, §3, §4

[5] = target: T2, Y537N mutant receptor (ERα LBD mutant); test: ERE-luciferase reporter gene assay, ERα Y537N, Caov2 cells; type: cell-based
Procedure: as §1, §2, §3, §4

[6] = target: T3, Y537C mutant receptor (ERα LBD mutant); test: ERE-luciferase reporter gene assay, ERα Y537C, SKBR3 cells; type: cell-based
Procedure: as §1, §2, §3, §4

[7] = in blood at approved doses: ICI 500 mg, 4OHT 20 mg, raloxifene 60 mg, bazedoxifene 20 mg; cited from earlier work
[8] = target: T1, ESR1 wild type receptor (ERα WT); test: ERE-luciferase reporter gene assay, wild-type ERα, SKBR3 cells; type: cell-based
Procedure: as §1, §2, §3, §4

[9] = human, blood, reported Cmax converted to molar, same approved doses, read-out: Converted (M) Cmax

Molecule: 4-hydroxytamoxifen [4OHT]
Caov2 Ratio Cmax/IC90 [1]: 119.01 | IC90 [1]: 0.924 nM | inhibition of receptor transcriptional activity (in words) [1]: inhibits activity of the ESR1 wild type receptor | IC90 [2]: 130 nM | SKBR3 Ratio Cmax/IC90 [2]: 0.85 | inhibition of receptor transcriptional activity (in words) [2]: inhibits the Y537N mutant receptor activity in a dose-response manner | Cmax ([3]; in vivo): 1.1e-07 M | Caov2 Ratio Cmax/IC90 [4]: 13.24 | IC90 [4]: 8.31 nM | inhibition of receptor transcriptional activity (in words) [4]: inhibits the Y537C mutant receptor activity in a dose-response manner | Caov2 Ratio Cmax/IC90 [5]: 11.6 | IC90 [5]: 9.45 nM | inhibition of receptor transcriptional activity (in words) [5]: inhibits the Y537N mutant receptor activity in a dose-response manner | IC90 [6]: 59 nM | SKBR3 Ratio Cmax/IC90 [6]: 1.86 | inhibition of receptor transcriptional activity (in words) [6]: inhibits the Y537C mutant receptor activity in a dose-response manner | Reported Cmax [7]: 40 ng/mL | IC90 [8]: 3.2 nM | SKBR3 Ratio Cmax/IC90 [8]: 34.38 | inhibition of receptor transcriptional activity (in words) [8]: inhibits the ESR1 wild type receptor activity

Cmax [3, 9]: 7.29e-09 M
Molecule: Cc1c(-c2ccc(O)cc2)n(Cc2ccc(OCCN3CCCCCC3)cc2)c2ccc(O)cc12 [Bazedoxifene, bazedoxifene]
Reported Cmax [7]: 6.2 ng/mL

Cmax ([3]; human, in vivo): 4.6e-08 M
Molecule: C[C@]12CC[C@@H]3c4ccc(O)cc4C[C@@H](CCCCCCCCC[S+]([O-])CCCC(F)(F)C(F)(F)F)[C@H]3[C@@H]1CC[C@@H]2O (some centres unmarked) [ICI, fulvestrant]
Reported Cmax [7]: 28 ng/mL

Cmax [3, 9]: 2.87e-09 M
Molecule: O=C(c1ccc(OCCN2CCCCC2)cc1)c1c(-c2ccc(O)cc2)sc2cc(O)ccc12 [Raloxifene, raloxifene]
Reported Cmax [7]: 1.36 ng/mL

— patent US20190231718A1, “TREATMENT OF BREAST CANCER” (Duke University, priority 2016, published 2019)
